In assay [1] the test system is Bombus terrestris. As to the kind of experiment: Contact toxicity against worker Bombus terrestris (bumblebee) assessed as reduction in reproduction at 30 mg a.i./l applied on the dorsal thorax for 11 weeks measured once a week for 11 weeks relative to control. It is filed as functional, organism-based.
For assay [2], the system named is Bombus terrestris. As to the kind of experiment: Toxicity against po dosed worker Bombus terrestris (bumblebee) administered through sugar water for 11 weeks measured everyday for 3 days followed by once a week for 11 weeks. It counts as functional.
The subject of assay [3] is Bombus terrestris. Briefly: Contact toxicity against worker Bombus terrestris (bumblebee) assessed as mortality at 30 mg a.i./l applied on the dorsal thorax for 11 weeks measured everyday for 3 days followed by once a week for 11 weeks. It counts as functional.
The subject of assay [4] is Bombus terrestris. Briefly: Toxicity against worker Bombus terrestris (bumblebee) assessed as mortality at 30 mg a.i./l, po administered through pollen measured after 7 weeks. It counts as functional. Particulars: 1176 h.
The test system of assay [5] is Bombus terrestris. Briefly: Toxicity against worker Bombus terrestris (bumblebee) assessed as mortality at 30 mg a.i./l, po administered through sugar water for 11 weeks measured everyday for 3 days followed by once a week for 11 weeks. It is filed as functional.
In assay [6] the test system is Bombus terrestris. Briefly: Toxicity against worker Bombus terrestris (bumblebee) assessed as mortality at 30 mg a.i./l, po administered through pollen for 11 weeks measured everyday for 3 days followed by once a week for 11 weeks. It counts as functional.
For assay [7], the system named is Bombus terrestris. Briefly: Toxicity against worker Bombus terrestris (bumblebee) assessed as reduction in reproduction at 30 mg a.i./l, po administered through pollen for 11 weeks measured once a week for 11 weeks. It is filed as functional. Set-up: scale not given: the % may be the effect or the level left.
In assay [8] the test system is Bombus terrestris. As to the kind of experiment: Contact toxicity against worker Bombus terrestris (bumblebee) assessed as mortality at 30 mg a.i./l applied on the dorsal thorax measured up to 1 week. It is filed as functional, organism-based.
Assay [9] deals with Bombus terrestris. As to the kind of experiment: Toxicity against worker Bombus terrestris (bumblebee) assessed as mortality at 18 mg a.i./l, po administered through sugar water measured after 11 weeks. It counts as functional. Particulars: 1848 h.
The subject of assay [10] is Bombus terrestris. As to the kind of experiment: Contact toxicity against worker Bombus terrestris (bumblebee) assessed as mortality at 18 mg a.i./l applied on the dorsal thorax for 11 weeks measured everyday for 3 days followed by once a week for 11 weeks. It counts as functional.
The subject of assay [11] is Bombus terrestris. Briefly: Toxicity against worker Bombus terrestris (bumblebee) assessed as mortality at 18 mg a.i./l, po administered through pollen measured after 3 weeks. It counts as functional. Particulars: 504 h.
The subject of assay [12] is Apis mellifera. As to the kind of experiment: Contact toxicity against Apis mellifera (honey bee) assessed per bee after 24 hr. It counts as functional.
The subject of assay [13] is Bombus terrestris. As to the kind of experiment: Toxicity against worker Bombus terrestris (bumblebee) assessed as mortality at 18 mg a.i./l, po administered through sugar water measured after 7 weeks. Particulars: 1176 h. It counts as functional.
The test system of assay [14] is Bombus terrestris. As to the kind of experiment: Toxicity against worker Bombus terrestris (bumblebee) assessed as mortality at 18 mg a.i./l, po administered through pollen for 11 weeks measured everyday for 3 days followed by once a week for 11 weeks. It counts as functional.
The test system of another assay is Aphidius colemani. Briefly: Contact toxicity against Aphidius colemani assessed as mortality at 8.5 mg a.i./l. It is filed as functional.
For assay [15], the system named is Bombus terrestris. As to the kind of experiment: Contact toxicity against worker Bombus terrestris (bumblebee) assessed as mortality at 18 mg a.i./l applied on the dorsal thorax measured after 3 to 4 weeks. It counts as functional, organism-based.
Assay [16] deals with Bombus terrestris. Briefly: Toxicity against worker Bombus terrestris (bumblebee) assessed as mortality at 18 mg a.i./l, po administered through sugar water for 11 weeks measured everyday for 3 days followed by once a week for 11 weeks. It is filed as functional.
Assay [17] relates to Bombus terrestris. Briefly: Contact toxicity against worker Bombus terrestris (bumblebee) assessed as reduction in reproduction at 18 mg a.i./l applied on the dorsal thorax for 11 weeks measured once a week for 11 weeks relative to control. It is filed as functional, organism-based.
Assay [18] deals with Bombus terrestris. Briefly: Toxicity against worker Bombus terrestris (bumblebee) assessed as reduction in reproduction at 18 mg a.i./l, po administered through pollen for 11 weeks measured once a week for 11 weeks. It is filed as functional, organism-based.
Assay [19] has as its system Apis mellifera. As to the kind of experiment: Toxicity against po dosed Apis mellifera (honey bee) assessed per bee after 24 hr. It counts as functional.
The test system of assay [20] is Bombus terrestris. Briefly: Toxicity against worker Bombus terrestris (bumblebee) assessed as mortality at 18 mg a.i./l, po administered through pollen measured after 7 weeks. Particulars: 1176 h. It counts as functional.
For assay [21], the system named is Bombus terrestris. Briefly: Toxicity against worker Bombus terrestris (bumblebee) assessed as mortality at 18 mg a.i./l, po administered through sugar water measured after 9 weeks. Particulars: 1512 h. It is filed as functional.
The test system of assay [22] is Bombus terrestris. As to the kind of experiment: Toxicity against worker Bombus terrestris (bumblebee) assessed as mortality at 18 mg a.i./l, po administered through sugar water measured after 1 week. It counts as functional. Particulars: 168 h.

Calls of active or inactive are those of the source. The rule behind the calls is not given here.

Usually NOAEL stands for the highest tested level that showed no adverse finding. As a reminder, the mortality is the percentage killed. Turning to `Cc1c(COC(=O)[C@@H]2[C@H](/C=C(\Cl)C(F)(F)F)C2(C)C)cccc1-c1ccccc1` (relative stereo) [BIFENTHRIN], the outcome with Bombus terrestris [1] and in the assay with Bombus terrestris [8] was Active. Moreover, in the assay with Bombus terrestris [2], the LC50 turned out to be 0.36 mgAi/L. In addition, in the assay on Bombus terrestris [2], the no observed adverse effect level (NOAEL) is listed as 0.03 mgAi/L. Besides, the mortality at 30 µg/mL in the assay on Bombus terrestris [3] stood at 100%; with Bombus terrestris [4], 100%; in the assay on Bombus terrestris [5] it was 50%; with Bombus terrestris [6] it was 90%. The Activity in the assay with Bombus terrestris [7] worked out at 50%.
Take `CC[C@H](C)[C@H]1O[C@]2(C=C[C@@H]1C)C[C@@H]1C[C@@H](C/C=C(\C)[C@@H](O[C@H]3C[C@H](OC)[C@@H](O[C@H]4C[C@H](OC)[C@@H](O)[C@H](C)O4)[C@H](C)O3)[C@@H](C)/C=C/C=C3\CO[C@@H]4[C@H](O)C(C)=C[C@@H](C(=O)O1)[C@]34O)O2.CO[C@H]1C[C@H](O[C@H]2[C@H](C)O[C@@H](O[C@@H]3/C(C)=C/C[C@@H]4C[C@@H](C[C@]5(C=C[C@H](C)[C@@H](C(C)C)O5)O4)OC(=O)[C@@H]4C=C(C)[C@@H](O)[C@H]5OC/C(=C\C=C\[C@@H]3C)[C@]54O)C[C@@H]2OC)O[C@@H](C)[C@@H]1O` [ABAMECTIN]: in the assay with Bombus terrestris [2], the LC50 is 1.17 mgAi/L. Besides, the NOAEL in the assay with Bombus terrestris [2] was 0.18 mgAi/L. Also, the mortality at 18 µg/mL worked out at 100% in the assay on Bombus terrestris [9]; 100% in the assay with Bombus terrestris [10]; 40% in the assay on Bombus terrestris [11]; 40% in the assay on Bombus terrestris [13]; 90% in the assay with Bombus terrestris [14]; 95% with Bombus terrestris [16]. The mortality at 18 µg/mL in the assay with Bombus terrestris [20] came to 60%; in the assay on Bombus terrestris [21], 80%; with Bombus terrestris [22] it was 20%. The LD50 came to 0.002 µg in the assay on Apis mellifera [12] and 0.009 µg in the assay with Apis mellifera [19]. The mortality at 8.5 µg/mL with Aphidius colemani came to 100%. For the same compound, the outcome with Bombus terrestris [15], in the assay on Bombus terrestris [17] and in the assay on Bombus terrestris [18] was Active.

These data come from ChEMBL document CHEMBL3045684, “Compatibility of traditional and novel acaricides with bumblebees (Bombus terrestris): a first laboratory assessment of toxicity and sublethal effects” (Pest Manag Sci, 2010).
